Test results taken from ChEMBL document CHEMBL5335792, “Chemical exploration of TGR5 functional hot-spots: Synthesis and structure-activity relationships of C7- and C23-Substituted cholic acid derivatives” (Eur J Med Chem, 2023).

Assay: physchem
Conditions: 0.15 M sodium salt

With `C[C@H](CCC(=O)O)[C@H]1CC[C@H]2[C@@H]3[C@H](O)C[C@@H]4C[C@H](O)CC[C@]4(C)[C@H]3C[C@H](O)[C@]12C` [CHOLIC ACID] the solubility was 12 mM.
